Data taken from patent US10407400B2, “Compounds, compositions, and methods for modulating sweet taste” (Chromocell Corporation, priority 2015, dated 2019).

Tested on: perception of sweet taste of High Fructose Corn Syrup (HFCS)
Assay: Two-alternative forced choice (2AFC) sip and spit sensory test of perceived sweetness in Lemon Lime beverage
Type: in vivo, humans
Settings: Lemon Lime beverage pH 3.1
Method: Effect of Test Compounds on the Perception of Sweet Taste of High Fructose Corn Syrup (HFCS) Two-alternative Forced Choice Method (2AFC). The effect of the test compounds and combinations of test compounds on the perception of the sweet taste of a flavored beverage (referred to as Lemon Lime henceforth) of sweetener in humans was evaluated using a two-alternative forced choice “sip and spit” method (2AFC). The Lemon Lime solutions were prepared by adding sucrose equivalent (SE) quantities of high fructose corn syrup (HFCS) (by weight), to water to achieve the desired concentration. The lemon lime pH is 3.1. Compounds were first prepared as a 500-fold concentrated stock solution in 100% ethanol. These concentrated stocks were then added to the aqueous sweetener solutions to result in a final ethanol concentration of 0.2%. […] In this manner, compounds were not assessed simply for an increase in perceived sweetness, but a significant increase in perceived sweetness above the positive control. […] Data were analyzed using binomial probabilities. Approximate levels of sweetness enhancement in column 5 of Table 1 were calculated as follows: Approximate levels of sweetness enhancement=Sweetener concentration of positive control surpassed by the test sample, divided by sweetener concentration for compound-containing sample (e.g. 1.5×=7.5brix HFCS/5brix HFCS).

## COc1cc(C2CC(=O)Oc3cc(C)cc(O)c32)ccc1O (racemic) [Compound 1, 5-hydroxy-4-(4-hydroxy-3-methoxyphenyl)-7-methylchroman-2-one]
Positive control 10brix HFCS surpassed, divided by test sample 7.14brix HFCS, compound concentration 25 ppm (1) or 41.25 ppm (1 & 4)
  Fold increase in perceived sweetness: >1.4X
Test sample 7.14brix HFCS with compound surpassed positive control 10brix HFCS, taste panelists n≥15, 0.2% ethanol
  Compound concentration with positive 2AFC results: 25 ppm
